Data on 21 compounds can be found in patent US20170152258A9, “Substituted Pyridopyrazines as Syk Inhibitors” (HUTCHISON MEDIPHARMA LIMITED, priority 2012, published 2017).

Each structure is given as a SMILES string.

The test system of one experiment is RBL-2H3 cells. In words: IgE-induced Beta-hexosaminidase secretion in RBL-2H3 cells. Type of experiment: cell-based. Conditions: IgE-induced Beta-hexosaminidase secretion, DNP-BSA stimulation. The gist of the method:
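RBL-2H3 cells sensitized overnight with 0.5 ug/ml SPE-7 IgE, washed, preincubated with compound 20 min at 37° C, then stimulated with DNP-BSA (150 ng/mL stock) for 45 min. Released β-hexosaminidase measured on supernatant with 1 mM 4-nitrophenyl N-acetyl-β-D-glucosaminide, pH 4.5, 1.5 hr at 37° C; absorbance 405 nm after carbonate quench.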
As for `CN(C)c1ccc(-c2cc3nccnc3c(OC[C@@H]3CN(C(=O)[C@H]4CCOC4)CCO3)n2)cc1` [Compound 95], half-maximal inhibition (IC50) was put at 71 nM.

The same experiment, now with this note: Rattus norvegicus, RBL-2H3, IgE-induced Beta-hexosaminidase secretion, DNP-BSA stimulation.
`CNC(=O)CS(=O)(=O)N1CCO[C@H](COc2nc(-c3ccc(N(C)C)cc3)cc3nccnc23)C1` [Compound 99] came in with an IC50 of 106 nM.
Same read-out and setting: next, `CN(C)c1ccc(-c2cc3nccnc3c(OC[C@@H]3CN(C(=O)C(F)F)CCO3)n2)cc1F` [Compound 32]: 76 nM.
For the compound `CS(=O)(=O)N1CCO[C@H](COc2nc(-c3ccc(C4(C#N)CC4)cc3)cc3nccnc23)C1` [Compound 274], 59 nM corresponded to half-maximal inhibition (IC50).
On the same count and under the same terms, next, `CNS(=O)(=O)N1CCO[C@H](COc2nc(-c3ccc(OC)c(OC)c3)cc3nccnc23)C1` [Compound 220]: 69 nM.
Same read-out and setting: next, `CC(=O)N1CCO[C@H](COc2nc(-c3ccc(C(C)(C)C)cc3)cc3nccnc23)C1` [Compound 254]: 99 nM; `CC(C)c1ccc(-c2cc3nccnc3c(OC[C@@H]3CN(C(N)=O)CCO3)n2)cc1` [Compound 175]: 69 nM; `COc1ccc(-c2cc3nccnc3c(OC[C@@H]3CN(S(C)(=O)=O)CCO3)n2)cc1OC` [Compound 43]: 37 nM.
For the compound `CC(=O)N1CCO[C@H](COc2nc(-c3ccc(NC(C)C)cc3)cc3nccnc23)C1` [Compound 141], inhibition was half-maximal at 81 nM (IC50).
With `CC(C)(C#N)c1ccc(-c2cc3nccnc3c(OC[C@@H]3CN(S(C)(=O)=O)CCO3)n2)cc1` [Compound 212], the midpoint of inhibition, the IC50, lay at 30 nM.
In turn, `N#CC1(c2ccc(-c3cc4nccnc4c(OC[C@@H]4CN(S(N)(=O)=O)CCO4)n3)cc2)CC1` [Compound 293] displayed an IC50 of 241 nM. This IC50 lies about 8-fold higher than the previous one.
On to `CN1CCCc2cc(-c3cc4nccnc4c(OC[C@@H]4CN(C(N)=O)CCO4)n3)ccc21` [Compound 209], for which the IC50 was determined as 57 nM.
In turn, `CC(C)(O)c1ccc(-c2cc3nccnc3c(OC[C@@H]3CN(C(N)=O)CCO3)n2)cc1` [Compound 266] had an IC50 of 1090 nM. Compared with the last compound, the IC50 is about 19-fold higher.
On the same count and under the same terms, to `CN(C)c1ccc(-c2cc3nccnc3c(OC[C@@H]3CN(C(=O)C4CCOCC4)CCO3)n2)cc1` [Compound 73] belongs 142 nM.
Same read-out and setting: next, `CN(C)c1ccc(-c2cc3nccnc3c(OC[C@@H]3CN(C(=O)[C@H]4CCOC4)CCO3)n2)cc1` [Compound 95]: 49 nM; `CS(=O)(=O)N1CCO[C@H](COc2nc(-c3ccc(N4CCCCC4)cc3)cc3nccnc23)C1` [Compound 21]: 88 nM.
`CN(C)c1ccc(-c2cc3nccnc3c(OC[C@@H]3CN(C(N)=O)CCO3)n2)cc1` [Compound 136]: the IC50 is 99 nM. This IC50 and that of the compound before are within 1.5-fold of each other.
Still for that read-out and setting: next, `Cc1cc(-c2cc3nccnc3c(OC[C@@H]3CNC(=O)C3)n2)ccc1N(C)C` [Compound 226]: 60 nM; `CN1CCN(c2ccc(-c3cc4nccnc4c(OC[C@@H]4CN(S(C)(=O)=O)CCO4)n3)cc2)CC1` [Compound 13]: 40 nM.
On the same count and under the same terms, to `CN(C)c1ccc(-c2cc3nccnc3c(OC[C@@H]3CN(S(N)(=O)=O)CCO3)n2)cc1` [Compound 178] belongs 63 nM; to `CCC(=O)N1CCO[C@H](COc2nc(-c3ccc(N(C)C)cc3)cc3nccnc23)C1` [Compound 198], 86 nM.
Still for that read-out and setting: next, `CN(C)c1ccc(-c2cc3nccnc3c(OC[C@@H]3CN(S(C)(=O)=O)CCO3)n2)cc1F` [Compound 53]: 37 nM.

The target in the next experiment is Syk kinase (Homo sapiens, UniProt P43405). In words: SYK Enzymatic Assay (Z-LYTE Tyr 2 peptide). Type of experiment: biochemical. The settings on record: 8 concentrations 1 μM down to 0.0003 μM. The method, boiled down:
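Z-LYTE format using Tyr 2 peptide. After the 1 h room-temperature kinase reaction, development reagent was added for 1 h, then stop reagent. Fluorescence was read at 445 and 520 nm. Compounds were tested at 8 concentrations, 1 μM down to 0.0003 μM (1:3 dilutions).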
`CNC(=O)CS(=O)(=O)N1CCO[C@H](COc2nc(-c3ccc(N(C)C)cc3)cc3nccnc23)C1` [Compound 99] gave an IC50 of 23 nM.
Same read-out and setting: to `CN(C)c1ccc(-c2cc3nccnc3c(OC[C@@H]3CN(C(=O)C(F)F)CCO3)n2)cc1F` [Compound 32] belongs 60 nM; to `CS(=O)(=O)N1CCO[C@H](COc2nc(-c3ccc(C4(C#N)CC4)cc3)cc3nccnc23)C1` [Compound 274], 40 nM; to `CNS(=O)(=O)N1CCO[C@H](COc2nc(-c3ccc(OC)c(OC)c3)cc3nccnc23)C1` [Compound 220], 86 nM.
In turn, `CC(=O)N1CCO[C@H](COc2nc(-c3ccc(C(C)(C)C)cc3)cc3nccnc23)C1` [Compound 254] yielded a 50% inhibitory concentration (IC50) of 55 nM.
Same read-out and setting: to `CC(C)c1ccc(-c2cc3nccnc3c(OC[C@@H]3CN(C(N)=O)CCO3)n2)cc1` [Compound 175] belongs 55 nM; to `COc1ccc(-c2cc3nccnc3c(OC[C@@H]3CN(S(C)(=O)=O)CCO3)n2)cc1OC` [Compound 43], 13 nM; to `CC(=O)N1CCO[C@H](COc2nc(-c3ccc(NC(C)C)cc3)cc3nccnc23)C1` [Compound 141], 98 nM.
In turn, `CC(C)(C#N)c1ccc(-c2cc3nccnc3c(OC[C@@H]3CN(S(C)(=O)=O)CCO3)n2)cc1` [Compound 212] returned a concentration for half-maximal inhibition (IC50) of 17 nM.
Consider `N#CC1(c2ccc(-c3cc4nccnc4c(OC[C@@H]4CN(S(N)(=O)=O)CCO4)n3)cc2)CC1` [Compound 293], for which the IC50 was 50 nM.
In the case of `CN1CCCc2cc(-c3cc4nccnc4c(OC[C@@H]4CN(C(N)=O)CCO4)n3)ccc21` [Compound 209], the half-maximal inhibitory concentration (IC50) was found to be 17 nM.
Regarding `CC(C)(O)c1ccc(-c2cc3nccnc3c(OC[C@@H]3CN(C(N)=O)CCO3)n2)cc1` [Compound 266], the IC50 worked out at 44 nM.
`CN(C)c1ccc(-c2cc3nccnc3c(OC[C@@H]3CN(C(=O)C4CCOCC4)CCO3)n2)cc1` [Compound 73] had an IC50 of 204 nM.
For `CN(C)c1ccc(-c2cc3nccnc3c(OC[C@@H]3CN(C(=O)[C@H]4CCOC4)CCO3)n2)cc1` [Compound 95], the IC50 is 31 nM.
Same read-out and setting: next, `CS(=O)(=O)N1CCO[C@H](COc2nc(-c3ccc(N4CCCCC4)cc3)cc3nccnc23)C1` [Compound 21]: 30 nM; `CN(C)c1ccc(-c2cc3nccnc3c(OC[C@@H]3CN(C(N)=O)CCO3)n2)cc1` [Compound 136]: 25 nM; `Cc1cc(-c2cc3nccnc3c(OC[C@@H]3CNC(=O)C3)n2)ccc1N(C)C` [Compound 226]: 29 nM.
`CN1CCN(c2ccc(-c3cc4nccnc4c(OC[C@@H]4CN(S(C)(=O)=O)CCO4)n3)cc2)CC1` [Compound 13] displayed an IC50 of 25 nM.
The same measure, in the same setting: to `CN(C)c1ccc(-c2cc3nccnc3c(OC[C@@H]3CN(S(N)(=O)=O)CCO3)n2)cc1` [Compound 178] belongs 19 nM; to `CCC(=O)N1CCO[C@H](COc2nc(-c3ccc(N(C)C)cc3)cc3nccnc23)C1` [Compound 198], 40 nM.
Same read-out and setting: to `CN(C)c1ccc(-c2cc3nccnc3c(OC[C@@H]3CN(S(C)(=O)=O)CCO3)n2)cc1F` [Compound 53] belongs 32 nM.

One may read the IC50 as the concentration that gives 50% inhibition. Lower therefore signals greater potency.
